Results reported in US10273246B2, “Methods and compositions of substituted 5H-[1,2,5] oxadiazolo [3′,4′:5,6] pyrazino[2,3-B] indole analogs as inhibitors of β-catenin/T-cell factor protein-protein interactions” (University of Utah Research Foundation, priority 2015, dated 2019).
Like-named read-outs stand apart in the source and are kept apart here.

Key:
[1] = target: T1, β-catenin/Tcf4 PPI (Homo sapiens, UniProt P35222); details: Table 3, known inhibitors, footnotes a, b; read-out: Ki + SD FP; cited from earlier work
T1 sequence (P35222 138-686): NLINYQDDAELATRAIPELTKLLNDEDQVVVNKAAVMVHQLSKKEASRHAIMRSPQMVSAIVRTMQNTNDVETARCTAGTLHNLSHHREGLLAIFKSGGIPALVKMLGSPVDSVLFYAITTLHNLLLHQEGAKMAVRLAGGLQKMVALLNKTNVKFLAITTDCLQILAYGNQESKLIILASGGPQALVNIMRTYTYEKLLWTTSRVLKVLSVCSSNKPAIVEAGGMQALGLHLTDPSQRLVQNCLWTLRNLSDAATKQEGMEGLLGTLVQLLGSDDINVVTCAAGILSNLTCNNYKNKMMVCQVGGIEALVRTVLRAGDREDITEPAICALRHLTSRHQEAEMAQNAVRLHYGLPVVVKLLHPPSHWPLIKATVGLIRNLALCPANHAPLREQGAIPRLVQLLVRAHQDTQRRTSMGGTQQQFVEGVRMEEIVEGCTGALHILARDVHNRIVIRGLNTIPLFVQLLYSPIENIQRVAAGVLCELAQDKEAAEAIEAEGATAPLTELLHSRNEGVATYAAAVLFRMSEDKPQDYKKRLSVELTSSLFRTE

[2] = target: T2, β-catenin/Tcf4 (Homo sapiens, UniProt P35222); details: FP selectivity assay, known inhibitors, footnotes a, b; read-out: Ki ± SD β-catenin/Tcf4; cited from earlier work
T2 sequence (P35222 138-686): T1 sequence (P35222 138-686)

[3] = target: T3, β-catenin/E-cadherin (Homo sapiens, UniProt P35222); details: FP selectivity assay, known inhibitors, footnotes a, b; read-out: Ki ± SD β-catenin/E-cadherin; cited from earlier work
T3 construct: Wild-type β-catenin and its mutants (residues 138-686) were cloned; 6xHis; made in house; host or cells: E. coli BL21 DE3
T3 sequence (P35222 138-686): T1 sequence (P35222 138-686)

[4] = target: T4, β-catenin/APC-R3 (Homo sapiens, UniProt P35222); details: FP selectivity assay, known inhibitors, footnotes a, b; read-out: Ki ± SD β-catenin/APC-R3; cited from earlier work
T4 construct: Wild-type β-catenin and its mutants (residues 138-686) were cloned; 6xHis; made in house; host or cells: E. coli BL21 DE3
T4 sequence (P35222 138-686): T1 sequence (P35222 138-686)

[5] = tested on: canonical Wnt signaling in colorectal cancer SW480 cells; test: TOPFlash luciferase reporter assay, SW480; assay type: cell-based; details: Homo sapiens, SW480, 24 h, read-out: TOPFlash IC50 ± SD SW480
Description: (§1) FuGENE 6 (E2962, Promega) in a 96-well plate format was used for the transfection of HEK293 and SW480 cells according to the manufacturer's instructions. […] SW480 cells were co-transfected with 60 ng of the TOPFlash or FOPFlash reporter gene and 40 ng pCMV-RL normalization reporter. Cells were cultured in DMEM and 10% fatal bovine serum at 37° C. for 24 h, and different concentrations of inhibitors were then added. After 24 h, the luciferase reporter activity was measured using the Dual-Glo system (E2940, Promega). Normalized luciferase activity in response to the treatment with the inhibitors was compared with that obtained from the cells treated with DMSO. Experiments were performed in triplicate.

[6] = tested on: FOPFlash luciferase (reporter with eight mutant Tcf binding sites); assay type: cell-based, human
Description: as §1

[7] = tested on: SW480 cells; test: MTs cell viability assay, SW480; assay type: cell-based, human; details: Homo sapiens, SW480; MTs cell viability, 72 h; read-out: IC50 ± SD SW480
Description: (§2) Colorectal cancer cell lines, SW480, HT29, an HCT116, and human normal cell line HEK293 were seeded in 96-well plates at 4×10^3 cells/well, maintained overnight at 37° C., and incubated with the tested compounds at various concentrations. Cell viability was monitored after 72 h using a freshly prepared mixture of 1 part phenazine methosulfate (PMS, Sigma) solution (0.92 mg/mL) and 19 parts 3-(4,5-dimethylthiazol-2-yl)-5-(3-carboxymethoxyphenyl)-2-(4-sulfophenyl)-2H-tetrazolium (MTs, Promega) solution (2 mg/mL). Cells were incubated in 10 μL of this solution at 37° C. for 3 h, and A490 was measured. […] Experiments were performed in triplicate.

[8] = tested on: HCT116 cells; test: MTs cell viability assay, HCT116; assay type: cell-based, human; details: Homo sapiens, HCT-116; MTs cell viability, 72 h; read-out: IC50 ± SD HCT116
Description: as §2

[9] = tested on: HT29 cells; test: MTs cell viability assay, HT29; assay type: cell-based; details: Homo sapiens, HT-29, 72 h, read-out: IC50 ± SD HT29
Description: as §2

[10] = tested on: cyclin D1, c-myc and β-catenin protein expression in SW480 cells; test: Western blot analysis; assay type: cell-based, human; details: SW480, 24 h
Description: SW480 cells at 1×10^6 cells/mL were treated with different concentrations of 18 for 24 h. Cell were lysed in a buffer containing 50 mM Tris (pH 7.4), 150 mM NaCl, 1% Nonidet P-40, 0.5% sodium deoxycholate, 0.1% SDS, and protease inhibitors. After centrifugation at 12,000 rpm for 20 min at 4° C., the supernatant was loaded onto an 8% SDS polyacrylamide gel for electrophoretic analysis. Separated proteins were transferred onto nitrocellulose membranes for immunoblot analysis. The antibodies against c-myc (D84C12, Cell Signaling), cyclin D1 (sc-853, Santa Cruz Biotechnology, Inc.), and β-tubulin (sc-55529, Santa Cruz Biotechnology, Inc) were used. IRDye 680LT goat anti-mouse IgG (827-11080, LiCOR) or IRDye 800CW goat anti-rabbit IgG (827-08365, LiCOR) was used as the secondary antibody. The images were detected by the Odyssey Infrared Imaging System (LiCOR). The Western blot bands were quantified by LI-COR Image Studio Lite 4.0. Experiments were performed in duplicate.

[11] = target: T5, β-catenin/Tcf PPI in SW480 cells (Homo sapiens, UniProt P35222); test: Coimmunoprecipitation assay; assay type: cell-based; details: SW480, 24 h
T5 construct: endogenous in cells; host or cells: SW480
T5 sequence (P35222 2-781 limits assumed): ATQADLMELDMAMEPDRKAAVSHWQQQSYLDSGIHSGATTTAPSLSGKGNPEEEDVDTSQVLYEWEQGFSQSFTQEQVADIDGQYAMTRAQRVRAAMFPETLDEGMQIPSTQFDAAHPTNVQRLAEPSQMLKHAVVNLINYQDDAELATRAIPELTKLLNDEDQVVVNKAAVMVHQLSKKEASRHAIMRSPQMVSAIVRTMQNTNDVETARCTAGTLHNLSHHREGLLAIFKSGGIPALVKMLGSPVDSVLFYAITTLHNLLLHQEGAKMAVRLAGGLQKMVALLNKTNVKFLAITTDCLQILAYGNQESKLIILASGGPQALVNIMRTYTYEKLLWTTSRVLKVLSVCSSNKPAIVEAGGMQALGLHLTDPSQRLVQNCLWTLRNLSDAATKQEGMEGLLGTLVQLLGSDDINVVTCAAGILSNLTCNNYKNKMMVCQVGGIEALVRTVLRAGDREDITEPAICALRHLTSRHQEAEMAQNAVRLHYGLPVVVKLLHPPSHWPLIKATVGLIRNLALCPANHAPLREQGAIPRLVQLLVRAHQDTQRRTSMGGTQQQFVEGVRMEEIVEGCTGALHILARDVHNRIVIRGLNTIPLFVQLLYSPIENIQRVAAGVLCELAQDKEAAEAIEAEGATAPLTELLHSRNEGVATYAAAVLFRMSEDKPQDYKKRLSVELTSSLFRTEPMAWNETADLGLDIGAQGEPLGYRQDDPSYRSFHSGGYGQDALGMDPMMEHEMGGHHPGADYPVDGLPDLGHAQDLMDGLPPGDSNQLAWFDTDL
Description: SW480 cells at 1×10^6/mL were treated with different concentrations of 18 for 24 h. Cells were lysed in buffer containing 50 mM Tris, pH 7.4, 150 mM NaCl, 1% Nonidet P-40, 2 mM EDTA, and protease inhibitors. The lysates were preabsorbed to A/G plus agarose (sc-2003, Santa Cruz Biotechnology, Inc.) at 4° C. for 1 h. Preadsorbed lysates were incubated with a specific primary antibody overnight at 4° C. A/G plus agarose was then added to the lysates mixture and incubated for 3 h. The beads were washed 5 times with the lysis buffer at 4° C. The bound protein was eluted by boiling in the SDS sample buffer and loaded onto 8% SDS polyacrylamide gel for electrophoretic analysis. Separated proteins were transferred onto nitrocellulose membranes for immunoblot analysis. The primary antibodies were against fl-catenin (610153, BD Biosciences) and Tcf4 (05-511, Millipore). IRDye 680LT goat anti-mouse IgG (827-11080, LiCOR) was used as the secondary antibody. The images were detected by the Odyssey Infrared Imaging System (LiCOR). Experiments were performed in duplicate.

[12] = tested on: Wnt/β-catenin target genes in SW480 cells
Description: Total RNAs were extracted with TRIzol (Ser. […] The threshold cycle (CT) values were normalized to that of internal reference GAPDH. The primer pairs for human GAPDH were forward: [NT] and reverse: [NT]; for human HPRT forward: [NT] and reverse: [NT]; for human AXIN2 forward: [NT] and reverse: [NT]; for human c-myc forward: [NT] and reverse: [NT]; and for human cyclin D1 forward: [NT] and reverse: [NT]. Experiments were performed in triplicate.

[13] = target: T1, β-catenin/Tcf4 PPI; details: read-out: Ki ± SD FP; Table 8, resynthesized 18 and derivatives
Description: (§3) After β-catenin and fluorescein-Tcf4 form a protein-protein complex, the fluorophore is attached to a high-molecular-weight protein complex (≥60 kDa) and has a low rotational speed when it is excited by plane-polarized light. […] When an inhibitor completely disrupts the β-catenin/fluorescein-Tcf4 PPI, the fluorophore is only attached to Tcf4 (≤6 kDa), and the emitted light after excitation will be largely depolarized due to a high rotational speed of the fluorophore. AlphaScreen is a bead-based assay. […] On laser excitation at 680 nm, the photo sensitizers inside the donor beads convert ambient oxygen to a singlet oxygen state. Only when the donor and acceptor beads are brought within 200 nm can the singlet oxygen molecules diffuse to the acceptor beads, resulting in extensive emission at 570 nm.

[14] = target: T1, β-catenin/Tcf4 PPI; test: biochemical
Description: as §3

Structure (SMILES): COC1=C(CC(C)OC(=O)Oc2ccc(O)cc2)C2c3c(c(O)cc(OC)c3-c3c(OC)cc(O)c4c3C2C(CC(C)OC(=O)c2ccccc2)=C(OC)C4=O)C1=O (stereo not drawn) [Compound 1]
- Ki [1]: 18 ± 2.1 µM
- Ki [2]: 77 ± 9.3 µM
- Ki [3]: 38 ± 1.6 µM
- Ki [4]: 110 ± 0.58 µM

Structure (SMILES): COc1ccc(/C=C2\SC(=S)N(CCCC(=O)O)C2=O)cc1OC [Compound 9, reference compound]
- IC50 [5]: 4 ± 0.39 µM
- FOPFlash luciferase reporter activity ([6]; reference inhibitors): inhibited
- IC50 [7]: 240 ± 2.5 µM
- IC50 [8]: 180 ± 2.9 µM
- IC50 [9]: 290 ± 2.4 µM

Structure (SMILES): Nc1nonc1C(=O)N/N=C1/c2ccccc2-c2nc3nonc3nc21 [Compound 18, (Z)-4-Amino-N′-(9H-Indeno[1,2-B][1,2,5]Oxadiazolo[3,4-E]Pyrazin-9-ylidene)-1,2,5-Oxadiazole-3-Carbohydrazide]
- concentrations at which FOPFlash luciferase activity was inhibited ([6]; HEK293 and SW480 (FIG. 7), off-target effects): ≥ 5 µM
- expression level of β-catenin [10]: did not reduce
- expression of proteins cyclin D1 and c-myc [10]: significantly reduced
- β-catenin/Tcf PPI in a cellular context [11]: inhibits the β-catenin/Tcf PPI in a dose-dependent manner
- mRNA expression inhibited ([12]; AXIN2, cyclin D1, c-myc, dose of 2 μM, SW480, 24 h): More than 50%
- expression of house-keeping gene HPRT ([12]; SW480): did not affect
- expression of AXIN2, cyclin D1, and c-myc (mRNA) ([12]; SW480, dose-dependent): down-regulated

Structure (SMILES): N#CCn1c2ccccc2c2nc3nonc3nc21 [Compound 34, 2-(5H-[1,2,5]Oxadiazolo[3′,4′:5,6]Pyrazino[2,3-B]Indol-5-yl)Acetonitrile]
- Ki [13]: 240 ± 14 µM
- Ki [14]: > 130 µM
